The values that follow come from patent US12391737B2, “Soluble NPY2 receptor agonists” (Boehringer Ingelheim International GmbH, priority 2020, dated 2025).

Series [1] in a line: Solubility determination. Conditions: for Sol6: pH 6; for Sol7: pH 7. In a few lines: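 Shake-flask style: 10 mg/ml peptide (TFA salt), 0.1 M sodium diphosphate pH 6.4/7.0, 600 rpm, 2 h, RT; filter; dilute 1 mg/ml in 50% MeCN; RP-UPLC, 0–100% B over 2 min, 50 °C. Solubility = sample/control area ratio. Final pH recorded.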
Series [2] concerns the target T1, Human Neuropeptide Y2 Receptor (Homo sapiens, UniProt P49146).
T1 construct: purchased CHEMICON HTS066M
T1 sequence (P49146 1-381): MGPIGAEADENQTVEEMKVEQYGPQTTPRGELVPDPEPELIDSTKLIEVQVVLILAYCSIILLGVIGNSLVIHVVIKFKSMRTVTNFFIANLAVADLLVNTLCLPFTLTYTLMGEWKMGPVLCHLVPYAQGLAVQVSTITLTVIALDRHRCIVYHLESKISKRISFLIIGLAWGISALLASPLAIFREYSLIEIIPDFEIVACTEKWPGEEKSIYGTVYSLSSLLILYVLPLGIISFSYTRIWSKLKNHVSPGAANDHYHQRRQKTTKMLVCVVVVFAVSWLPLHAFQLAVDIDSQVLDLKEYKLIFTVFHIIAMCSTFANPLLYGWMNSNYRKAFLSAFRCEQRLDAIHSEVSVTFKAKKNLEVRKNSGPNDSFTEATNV
Nature of the series: Radioligand binding competition assay (RLB). Conditions: Table 3, 125I-PYY(1-36) competition; read-out: Ki. In outline:
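Filtration competition binding on membranes from cells expressing the receptor, 0.5 μg protein/well, in 50 mM HEPES, 5 mM MgCl2, 1 mM CaCl2, pH 7.4, with 0.2% ovalbumin. Incubation ran 2 h at room temperature, followed by GF/C filtration and scintillation counting. IC50 came from nonlinear sigmoidal fits.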

Each structure is given as a SMILES string. Where only a bound is given, the exact number is not on record here.

The term Ki denotes the dissociation constant of the complex between target and ligand, obtained from inhibition or displacement. For `CC[C@H](C)[C@H](NC(=O)[C@H](CCC(=O)O)NC(=O)[C@H](CCC(=O)O)NC(=O)[C@@H]1CCCN1C(=O)[C@@H](NC(=O)[C@H](C)NC(=O)[C@H](C)NC(=O)[C@H](CCC(=O)O)NC(=O)[C@H](CCC(=O)O)NC(=O)[C@@H]1CCCN1C(=O)[C@H](CCCCNC(=O)CCCCCNC(=O)CC[C@H](NC(=O)CCCCCCCCCCCCCCCCC(=O)O)C(=O)O)NC(=O)[C@H](C)NC(=O)[C@@H]1CCCN1C(=O)[C@H](C)NC(=O)CC(C)C)[C@@H](C)O)C(=O)N[C@@H](CCC(N)=O)C(=O)N[C@@H](CCCNC(=N)N)C(=O)N[C@@H](Cc1ccc(O)cc1)C(=O)N[C@@H](Cc1ccc(O)cc1)C(=O)N[C@H](C(=O)N[C@@H](C)C(=O)N[C@@H](CC(C)C)C(=O)N[C@@H](CCCNC(=N)N)C(=O)N[C@@H](Cc1c[nH]cn1)C(=O)N[C@@H](Cc1ccc(O)cc1)C(=O)N[C@@H](Cc1ccc(O)cc1)C(=O)N[C@@H](CC(N)=O)C(=O)N[C@@H](Cc1c[nH]c2ccccc12)C(=O)N[C@@H](CC(C)C)C(=O)N[C@H](C(=O)N[C@@H](CCCNC(=N)N)C(=O)N[C@@H](CCC(N)=O)C(=O)N[C@@H](CCCNC(=N)N)C(=O)N[C@@H](Cc1ccc(O)cc1)C(N)=O)[C@@H](C)O)C(C)C` [Compound 120, N{alpha-4}-(3-methylbutanoyl)-N{epsilon-7}-(6-[(4S)-4-carboxy-4-(17-carboxyheptadecanamido)butanamido]hexanoyl)-[4A,6A,7K,9E,11A,13T,17I,18Q,22V,23A,28Y,30W,31L]-hPYY(4-36)], in series [1], the “Sol6” value is 0.0 mg/mL and the “Sol7” value came to 0.2 mg/mL. Further, the Ki in series [2] was determined as 1.49 nM.
For `CC(C)CC(=O)N[C@@H](C)C(=O)N1CCC[C@H]1C(=O)N[C@@H](CCC(=O)O)C(=O)N[C@@H](CCCCNC(=O)CCCCCNC(=O)CC[C@H](NC(=O)CCCCCCCCCCCCCCCCC(=O)O)C(=O)O)C(=O)N1CCC[C@H]1C(=O)N[C@@H](CCC(=O)O)C(=O)N[C@@H](CCC(=O)O)C(=O)N[C@@H](CC(=O)O)C(=O)N[C@@H](CO)C(=O)N[C@H](C(=O)N1CCC[C@H]1C(=O)N[C@@H](CCC(=O)O)C(=O)N[C@@H](CCC(=O)O)C(=O)N[C@@H](CC(C)C)C(=O)N[C@@H](CCC(N)=O)C(=O)N[C@@H](CCCNC(=N)N)C(=O)N[C@@H](Cc1ccc(O)cc1)C(=O)N[C@@H](Cc1ccc(O)cc1)C(=O)N[C@H](C(=O)N[C@@H](CO)C(=O)N[C@@H](CC(C)C)C(=O)N[C@@H](CCCNC(=N)N)C(=O)N[C@@H](Cc1c[nH]cn1)C(=O)N[C@@H](Cc1ccc(O)cc1)C(=O)N[C@@H](Cc1ccc(O)cc1)C(=O)N[C@@H](CC(N)=O)C(=O)N[C@@H](Cc1c[nH]c2ccccc12)C(=O)N[C@@H](CC(C)C)C(=O)N[C@H](C(=O)N[C@@H](CCCNC(=N)N)C(=O)N[C@@H](CCC(N)=O)C(=O)N[C@@H](CCCNC(=N)N)C(=O)N[C@@H](Cc1ccc(O)cc1)C(N)=O)[C@@H](C)O)C(C)C)[C@@H](C)O` [Compound 143, N{alpha-4}-(3-methylbutanoyl)-N{epsilon-7}-(6-[(4S)-4-carboxy-4-(17-carboxyheptadecanamido)butanamido]hexanoyl)-[4A,7K,9E,12S,13T,18Q,22V,28Y,30W,31L]-hPYY(4-36)], in series [1], the “Sol6” value is 10.0 mg/mL and the “Sol7” value is greater than 10.0 mg/mL. In series [2], the Ki came to 3.42 nM.
As for `CC(C)CC(=O)N[C@@H](C)C(=O)N1CCC[C@H]1C(=O)N[C@@H](C)C(=O)N[C@@H](CCCCNC(=O)CCCCCNC(=O)CC[C@H](NC(=O)CCCCCCCCCCCCCCCCC(=O)O)C(=O)O)C(=O)N1CCC[C@H]1C(=O)N[C@@H](CCC(=O)O)C(=O)N[C@@H](CCC(=O)O)C(=O)N[C@@H](C)C(=O)N[C@@H](C)C(=O)N[C@@H](CCC(=O)O)C(=O)N1CCC[C@H]1C(=O)N[C@@H](CCC(=O)O)C(=O)N[C@@H](CCC(=O)O)C(=O)N[C@@H](CC(C)C)C(=O)N[C@@H](CCC(N)=O)C(=O)N[C@@H](CCCNC(=N)N)C(=O)N[C@@H](Cc1ccc(O)cc1)C(=O)N[C@@H](Cc1ccc(O)cc1)C(=O)N[C@H](C(=O)N[C@@H](C)C(=O)N[C@@H](CC(C)C)C(=O)N[C@@H](CCCNC(=N)N)C(=O)N[C@@H](Cc1c[nH]cn1)C(=O)N[C@@H](Cc1ccc(O)cc1)C(=O)N[C@@H](Cc1ccc(O)cc1)C(=O)N[C@@H](CC(N)=O)C(=O)N[C@@H](Cc1c[nH]c2ccccc12)C(=O)N[C@@H](CC(C)C)C(=O)N[C@H](C(=O)N[C@@H](CCCNC(=N)N)C(=O)N[C@@H](CCC(N)=O)C(=O)N[C@@H](CCCNC(=N)N)C(=O)N[C@@H](Cc1ccc(O)cc1)C(N)=O)[C@@H](C)O)C(C)C` [Compound 161, N{alpha-4}-(3-methylbutanoyl)-N{epsilon-7}-(6-[(4S)-4-carboxy-4-(17-carboxyheptadecanamido)butanamido]hexanoyl)-[4A,6A,7K,9E,11A,13E,18Q,22V,23A,28Y,30W,31L]-hPYY(4-36)], in series [1], the “Sol6” value worked out at 0.2 mg/mL and the “Sol7” value is greater than 10.0 mg/mL. In addition, in series [2], the Ki was 4 nM.
On to `CC(C)CC(=O)N[C@@H](C)C(=O)N1CCC[C@H]1C(=O)N[C@@H](CCC(=O)O)C(=O)N[C@@H](CCCCNC(=O)CCCCCNC(=O)CC[C@H](NC(=O)CCCCCCCCCCCCCCCCC(=O)O)C(=O)O)C(=O)N1CCC[C@H]1C(=O)N[C@@H](CCC(=O)O)C(=O)N[C@@H](CCC(=O)O)C(=O)N[C@@H](C)C(=O)N[C@@H](C)C(=O)N[C@@H](CCC(=O)O)C(=O)N1CCC[C@H]1C(=O)N[C@@H](CCC(=O)O)C(=O)N[C@@H](CCC(=O)O)C(=O)N[C@@H](CC(C)C)C(=O)N[C@@H](CCC(N)=O)C(=O)N[C@@H](CCCNC(=N)N)C(=O)N[C@@H](Cc1ccc(O)cc1)C(=O)N[C@@H](Cc1ccc(O)cc1)C(=O)N[C@H](C(=O)N[C@@H](CO)C(=O)N[C@@H](CC(C)C)C(=O)N[C@@H](CCCNC(=N)N)C(=O)N[C@@H](Cc1c[nH]cn1)C(=O)N[C@@H](Cc1ccc(O)cc1)C(=O)N[C@@H](Cc1ccc(O)cc1)C(=O)N[C@@H](CC(N)=O)C(=O)N[C@@H](Cc1c[nH]c2ccccc12)C(=O)N[C@@H](CC(C)C)C(=O)N[C@H](C(=O)N[C@@H](CCCNC(=N)N)C(=O)N[C@@H](CCC(N)=O)C(=O)N[C@@H](CCCNC(=N)N)C(=O)N[C@@H](Cc1ccc(O)cc1)C(N)=O)[C@@H](C)O)C(C)C` [Compound 4, N{alpha-4}-(3-methylbutanoyl)-N{epsilon-7}-(6-[(4S)-4-carboxy-4-(17-carboxyheptadecanamido)butanamido]hexanoyl)[4A,7K,9E,11A,13E,18Q,22V,28Y,30W,31L]-hPYY(4-36)], for which, in series [1], the “Sol6” value came to 10.0 mg/mL and the “Sol7” value was 10.0 mg/mL. Also, the Ki in series [2] was 4.65 nM.
Consider `CC(C)CC(=O)N[C@@H](C)C(=O)N1CCC[C@H]1C(=O)N[C@@H](CCC(=O)O)C(=O)N[C@@H](CCCCNC(=O)CCCCCNC(=O)CC[C@H](NC(=O)CCCCCCCCCCCCCCCCC(=O)O)C(=O)O)C(=O)N1CCC[C@H]1C(=O)N[C@@H](CCC(=O)O)C(=O)N[C@@H](CCC(=O)O)C(=O)N[C@@H](CC(=O)O)C(=O)N[C@@H](C)C(=O)N[C@H](C(=O)N1CCC[C@H]1C(=O)N[C@@H](CCC(=O)O)C(=O)N[C@@H](CCC(=O)O)C(=O)N[C@@H](CC(C)C)C(=O)N[C@@H](CCC(N)=O)C(=O)N1CCC[C@H]1C(=O)N[C@@H](Cc1ccc(O)cc1)C(=O)N[C@@H](Cc1ccc(O)cc1)C(=O)N[C@H](C(=O)N[C@@H](CO)C(=O)N[C@@H](CC(C)C)C(=O)N[C@@H](CCCNC(=N)N)C(=O)N[C@@H](Cc1c[nH]cn1)C(=O)N[C@@H](Cc1ccc(O)cc1)C(=O)N[C@@H](Cc1ccc(O)cc1)C(=O)N[C@@H](CC(N)=O)C(=O)N[C@@H](Cc1c[nH]c2ccccc12)C(=O)N[C@@H](CC(C)C)C(=O)N[C@H](C(=O)N[C@@H](CCCNC(=N)N)C(=O)N[C@@H](CCC(N)=O)C(=O)N[C@@H](CCCNC(=N)N)C(=O)N[C@@H](Cc1ccc(O)cc1)C(N)=O)[C@@H](C)O)C(C)C)[C@@H](C)O` [Compound 31, N{alpha-4}-(3-methylbutanoyl)-N{epsilon-7}-(6-[(4S)-4-carboxy-4-(17-carboxyheptadecanamido)butanamido]hexanoyl)[4A,7K,9E,13T,18Q,19P,22V,28Y,30W,31L]-hPYY(4-36)], for which, in series [1], the “Sol6” value is greater than 10.0 mg/mL and the “Sol7” value is 10.0 mg/mL. Further, the Ki in series [2] came out at 34.7 nM.
